Inhibition and Ki data for 4 compounds are collected here from ChEMBL document CHEMBL1821607, “N-Arylalkyl-2-azaadamantanes as cage-expanded polycarbocyclic sigma (σ) receptor ligands” (Bioorg Med Chem Lett, 2011).

A value given as a limit tells only on which side of the number the result lay.

The target in test [1] is T1, 5-hydroxytryptamine receptor 1A (Homo sapiens) (UniProt P08908).
T1 sequence (whole entry): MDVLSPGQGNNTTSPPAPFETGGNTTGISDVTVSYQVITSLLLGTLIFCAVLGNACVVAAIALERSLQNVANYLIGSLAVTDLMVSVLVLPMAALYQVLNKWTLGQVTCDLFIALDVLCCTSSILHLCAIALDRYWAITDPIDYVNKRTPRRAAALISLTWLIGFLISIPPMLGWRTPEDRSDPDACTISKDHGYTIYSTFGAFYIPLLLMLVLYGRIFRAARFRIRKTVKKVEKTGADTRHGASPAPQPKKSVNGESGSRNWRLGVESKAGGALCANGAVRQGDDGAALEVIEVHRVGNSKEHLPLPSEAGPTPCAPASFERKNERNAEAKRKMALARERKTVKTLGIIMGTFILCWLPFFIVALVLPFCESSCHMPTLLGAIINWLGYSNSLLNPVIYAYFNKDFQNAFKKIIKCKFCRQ
Nature of the test: Inhibition of 5-HT1A receptor at 10 uM by NIMH PDSP.

In test [2] the target is Sigma non-opioid intracellular receptor 1 (Cavia porcellus, UniProt Q60492). Nature of the test: Displacement of [3H](+)-pentazocine from sigma 1 receptor in guinea pig brain homogenates after 90 mins by scintillation counting. The test is classed as tissue-based.
In test [3] the target is Delta-type opioid receptor (Homo sapiens) (UniProt P41143). Description: Inhibition of delta opioid receptor at 10 uM by NIMH PDSP.
Delta-type opioid receptor (Homo sapiens), sequence (P41143 whole entry): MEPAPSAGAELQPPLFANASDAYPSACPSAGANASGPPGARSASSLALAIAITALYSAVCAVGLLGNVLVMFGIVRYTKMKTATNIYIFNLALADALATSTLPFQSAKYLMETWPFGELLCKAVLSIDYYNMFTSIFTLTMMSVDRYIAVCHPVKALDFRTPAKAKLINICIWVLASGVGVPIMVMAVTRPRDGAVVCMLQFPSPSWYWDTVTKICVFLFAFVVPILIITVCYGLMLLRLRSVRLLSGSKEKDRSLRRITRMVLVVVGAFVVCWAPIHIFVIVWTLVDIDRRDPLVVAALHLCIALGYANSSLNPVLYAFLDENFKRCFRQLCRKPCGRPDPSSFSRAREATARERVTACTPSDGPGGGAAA
The target of test [4] is 5-hydroxytryptamine receptor 2B (Homo sapiens) (UniProt P41595). Description: Inhibition of 5-HT2B receptor at 10 uM by NIMH PDSP.
5-hydroxytryptamine receptor 2B (Homo sapiens), sequence (P41595 whole entry): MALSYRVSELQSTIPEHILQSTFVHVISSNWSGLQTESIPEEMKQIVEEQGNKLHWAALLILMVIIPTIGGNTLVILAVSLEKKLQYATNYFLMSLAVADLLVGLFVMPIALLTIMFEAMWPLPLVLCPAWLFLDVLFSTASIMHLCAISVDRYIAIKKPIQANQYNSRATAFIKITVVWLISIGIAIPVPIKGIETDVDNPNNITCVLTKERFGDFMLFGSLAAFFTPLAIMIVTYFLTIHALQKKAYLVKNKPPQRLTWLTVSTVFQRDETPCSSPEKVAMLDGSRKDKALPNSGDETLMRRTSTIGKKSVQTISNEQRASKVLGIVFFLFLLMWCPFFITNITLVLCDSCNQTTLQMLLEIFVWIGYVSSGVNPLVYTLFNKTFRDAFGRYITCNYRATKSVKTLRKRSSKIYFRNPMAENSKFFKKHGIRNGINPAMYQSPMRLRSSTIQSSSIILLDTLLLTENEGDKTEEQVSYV
Test [5] addresses 5-hydroxytryptamine receptor 1D (Homo sapiens) (UniProt P28221). Description: Inhibition of 5-HT1D receptor at 10 uM by NIMH PDSP.
The target of test [6] is T2, Alpha-1D adrenergic receptor (Homo sapiens) (UniProt P25100).
T2 sequence (whole entry): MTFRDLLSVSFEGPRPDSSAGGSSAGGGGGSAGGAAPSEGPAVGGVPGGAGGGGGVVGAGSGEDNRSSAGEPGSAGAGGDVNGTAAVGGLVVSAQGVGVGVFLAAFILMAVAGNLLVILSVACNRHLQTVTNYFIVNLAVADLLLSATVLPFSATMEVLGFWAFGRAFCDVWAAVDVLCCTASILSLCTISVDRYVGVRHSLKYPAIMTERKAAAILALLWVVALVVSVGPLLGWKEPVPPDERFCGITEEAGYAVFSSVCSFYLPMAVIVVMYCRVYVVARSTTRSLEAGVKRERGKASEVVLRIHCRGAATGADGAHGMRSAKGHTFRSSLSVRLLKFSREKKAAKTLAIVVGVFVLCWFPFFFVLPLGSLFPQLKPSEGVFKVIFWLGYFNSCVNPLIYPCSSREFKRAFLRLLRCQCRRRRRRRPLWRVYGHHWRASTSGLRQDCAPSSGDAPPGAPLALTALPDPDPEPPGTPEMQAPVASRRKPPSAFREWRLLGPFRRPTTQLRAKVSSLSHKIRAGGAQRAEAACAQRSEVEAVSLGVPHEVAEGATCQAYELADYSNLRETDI
Nature of the test: Inhibition of alpha-1D adrenergic receptor at 10 uM by NIMH PDSP.

Another test has as its target D(1A) dopamine receptor (Homo sapiens, UniProt P21728). Description: Inhibition of D1 dopamine receptor at 10 uM by NIMH PDSP.
Test [7] deals with T3, Alpha-1A adrenergic receptor (Homo sapiens) (UniProt P35348).
T3 sequence (whole entry): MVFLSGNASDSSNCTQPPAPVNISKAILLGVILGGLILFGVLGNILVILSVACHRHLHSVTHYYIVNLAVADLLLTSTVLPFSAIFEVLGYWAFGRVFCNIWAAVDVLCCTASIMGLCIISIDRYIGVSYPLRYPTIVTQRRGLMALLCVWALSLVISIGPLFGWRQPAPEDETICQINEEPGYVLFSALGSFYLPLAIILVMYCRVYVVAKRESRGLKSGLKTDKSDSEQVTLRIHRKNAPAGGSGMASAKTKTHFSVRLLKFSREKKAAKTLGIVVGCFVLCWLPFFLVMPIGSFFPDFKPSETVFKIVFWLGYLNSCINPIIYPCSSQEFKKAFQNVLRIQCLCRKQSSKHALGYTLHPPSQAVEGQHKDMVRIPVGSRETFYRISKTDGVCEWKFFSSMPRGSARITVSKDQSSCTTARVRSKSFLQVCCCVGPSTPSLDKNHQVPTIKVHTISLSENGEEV
Description: Inhibition of alpha-1A adrenergic receptor at 10 uM by NIMH PDSP.

In test [8] the target is Sodium-dependent serotonin transporter (Homo sapiens) (UniProt P31645). Nature of the test: Inhibition of SERT at 10 uM by NIMH PDSP.
Sodium-dependent serotonin transporter (Homo sapiens), sequence (P31645 whole entry, looked up): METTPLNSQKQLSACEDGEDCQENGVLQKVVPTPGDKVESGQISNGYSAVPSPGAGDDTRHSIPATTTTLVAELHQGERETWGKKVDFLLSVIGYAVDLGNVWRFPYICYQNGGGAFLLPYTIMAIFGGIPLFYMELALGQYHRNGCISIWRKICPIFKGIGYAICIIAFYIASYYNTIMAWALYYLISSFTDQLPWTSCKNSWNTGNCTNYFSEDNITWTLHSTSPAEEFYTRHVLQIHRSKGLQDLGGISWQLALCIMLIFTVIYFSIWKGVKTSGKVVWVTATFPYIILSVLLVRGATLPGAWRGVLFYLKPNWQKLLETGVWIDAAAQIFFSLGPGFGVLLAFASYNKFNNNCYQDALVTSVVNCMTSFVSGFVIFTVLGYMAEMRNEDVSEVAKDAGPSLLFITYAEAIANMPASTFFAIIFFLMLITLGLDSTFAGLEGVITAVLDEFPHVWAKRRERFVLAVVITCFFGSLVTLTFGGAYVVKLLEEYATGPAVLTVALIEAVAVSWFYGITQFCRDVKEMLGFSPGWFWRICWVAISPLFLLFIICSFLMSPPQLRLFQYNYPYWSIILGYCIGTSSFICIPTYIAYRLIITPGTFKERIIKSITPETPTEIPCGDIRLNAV
In test [9] the target is Histamine H4 receptor (Homo sapiens) (UniProt Q9H3N8). Nature of the test: Inhibition of H4 receptor at 10 uM by NIMH PDSP.
Histamine H4 receptor (Homo sapiens), sequence (Q9H3N8 whole entry): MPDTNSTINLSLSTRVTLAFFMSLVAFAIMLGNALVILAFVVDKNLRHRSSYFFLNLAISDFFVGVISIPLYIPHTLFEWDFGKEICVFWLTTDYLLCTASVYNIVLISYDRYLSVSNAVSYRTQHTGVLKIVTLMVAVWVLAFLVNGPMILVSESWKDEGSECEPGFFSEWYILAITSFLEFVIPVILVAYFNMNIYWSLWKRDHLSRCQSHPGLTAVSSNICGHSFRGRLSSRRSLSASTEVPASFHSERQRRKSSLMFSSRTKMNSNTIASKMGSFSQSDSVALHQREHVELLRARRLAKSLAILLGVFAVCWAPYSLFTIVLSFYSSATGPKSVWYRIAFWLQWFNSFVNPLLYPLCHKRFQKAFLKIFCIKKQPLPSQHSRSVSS
Test [10] deals with Histamine H2 receptor (Homo sapiens) (UniProt P25021). Description: Inhibition of H2 receptor at 10 uM by NIMH PDSP.
Histamine H2 receptor (Homo sapiens), sequence (P25021 whole entry): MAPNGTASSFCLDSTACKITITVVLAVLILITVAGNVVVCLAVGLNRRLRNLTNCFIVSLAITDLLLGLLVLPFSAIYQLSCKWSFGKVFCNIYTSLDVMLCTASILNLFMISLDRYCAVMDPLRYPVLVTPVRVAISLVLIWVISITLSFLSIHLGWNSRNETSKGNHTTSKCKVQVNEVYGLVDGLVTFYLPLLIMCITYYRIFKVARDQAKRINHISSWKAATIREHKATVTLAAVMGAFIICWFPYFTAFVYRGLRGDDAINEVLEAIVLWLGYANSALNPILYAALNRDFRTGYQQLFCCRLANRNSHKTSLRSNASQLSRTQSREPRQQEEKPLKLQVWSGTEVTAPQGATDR
The target in another test is Histamine H1 receptor (Homo sapiens, UniProt P35367). Description: Inhibition of H1 receptor by NIMH PDSP.
Histamine H1 receptor, sequence (P35367 whole entry): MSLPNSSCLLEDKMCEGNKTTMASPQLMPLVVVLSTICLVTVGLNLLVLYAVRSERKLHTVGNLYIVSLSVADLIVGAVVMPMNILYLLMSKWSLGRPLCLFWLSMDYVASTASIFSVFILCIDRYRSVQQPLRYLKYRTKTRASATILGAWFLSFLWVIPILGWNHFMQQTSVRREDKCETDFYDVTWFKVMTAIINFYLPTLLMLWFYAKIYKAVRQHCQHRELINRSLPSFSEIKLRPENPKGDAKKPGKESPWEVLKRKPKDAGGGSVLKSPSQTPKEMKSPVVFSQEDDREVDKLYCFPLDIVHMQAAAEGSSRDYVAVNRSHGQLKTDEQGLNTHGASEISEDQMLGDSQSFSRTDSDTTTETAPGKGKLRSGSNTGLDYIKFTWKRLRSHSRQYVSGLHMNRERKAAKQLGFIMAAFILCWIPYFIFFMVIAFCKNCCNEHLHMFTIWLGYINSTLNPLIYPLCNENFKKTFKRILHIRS
For test [11], the target named is Sodium-dependent noradrenaline transporter (Homo sapiens, UniProt P23975). Nature of the test: Inhibition of NET transporter by NIMH PDSP.
Sodium-dependent noradrenaline transporter, sequence (P23975 whole entry): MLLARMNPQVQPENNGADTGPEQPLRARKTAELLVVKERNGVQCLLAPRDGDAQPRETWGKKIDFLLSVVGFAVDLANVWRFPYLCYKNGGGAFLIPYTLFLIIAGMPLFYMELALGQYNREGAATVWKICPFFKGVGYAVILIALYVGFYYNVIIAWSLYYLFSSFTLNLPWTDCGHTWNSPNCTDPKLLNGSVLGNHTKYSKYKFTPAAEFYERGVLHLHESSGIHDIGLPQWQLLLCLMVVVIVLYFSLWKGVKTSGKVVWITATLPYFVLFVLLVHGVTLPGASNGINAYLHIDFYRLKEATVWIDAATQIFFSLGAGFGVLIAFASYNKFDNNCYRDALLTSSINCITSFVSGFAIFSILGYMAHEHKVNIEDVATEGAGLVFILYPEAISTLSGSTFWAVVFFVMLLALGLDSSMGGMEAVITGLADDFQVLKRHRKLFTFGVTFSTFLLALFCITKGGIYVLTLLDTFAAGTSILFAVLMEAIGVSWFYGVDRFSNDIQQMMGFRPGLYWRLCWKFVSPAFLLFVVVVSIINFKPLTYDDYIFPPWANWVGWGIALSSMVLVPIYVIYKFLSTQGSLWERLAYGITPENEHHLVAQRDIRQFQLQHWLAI
In test [12] the target is 5-hydroxytryptamine receptor 7 (Homo sapiens) (UniProt P34969). Description: Inhibition of 5-HT7 receptor at 10 uM by NIMH PDSP.
For test [13], the target named is T4, Alpha-1B adrenergic receptor (Homo sapiens) (UniProt P35368).
T4 sequence (whole entry): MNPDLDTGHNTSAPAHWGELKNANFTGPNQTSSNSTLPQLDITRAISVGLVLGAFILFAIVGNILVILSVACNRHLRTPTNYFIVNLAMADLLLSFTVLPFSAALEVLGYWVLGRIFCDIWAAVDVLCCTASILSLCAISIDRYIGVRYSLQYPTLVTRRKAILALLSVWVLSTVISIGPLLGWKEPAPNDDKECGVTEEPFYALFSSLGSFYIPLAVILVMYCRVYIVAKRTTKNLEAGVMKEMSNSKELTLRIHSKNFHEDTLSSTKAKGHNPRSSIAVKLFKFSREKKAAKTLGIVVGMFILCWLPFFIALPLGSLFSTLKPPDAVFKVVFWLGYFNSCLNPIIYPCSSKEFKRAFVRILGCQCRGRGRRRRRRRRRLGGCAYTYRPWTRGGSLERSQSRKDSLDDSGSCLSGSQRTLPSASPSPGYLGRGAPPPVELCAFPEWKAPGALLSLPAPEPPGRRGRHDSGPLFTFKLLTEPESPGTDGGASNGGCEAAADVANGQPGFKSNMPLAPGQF
Nature of the test: Inhibition of alpha-1B adrenergic receptor at 10 uM by NIMH PDSP.

The target of test [14] is 5-hydroxytryptamine receptor 5A (Homo sapiens) (UniProt P47898). Nature of the test: Inhibition of 5-HT5A receptor at 10 uM by NIMH PDSP.
5-hydroxytryptamine receptor 5A (Homo sapiens), sequence (P47898 whole entry): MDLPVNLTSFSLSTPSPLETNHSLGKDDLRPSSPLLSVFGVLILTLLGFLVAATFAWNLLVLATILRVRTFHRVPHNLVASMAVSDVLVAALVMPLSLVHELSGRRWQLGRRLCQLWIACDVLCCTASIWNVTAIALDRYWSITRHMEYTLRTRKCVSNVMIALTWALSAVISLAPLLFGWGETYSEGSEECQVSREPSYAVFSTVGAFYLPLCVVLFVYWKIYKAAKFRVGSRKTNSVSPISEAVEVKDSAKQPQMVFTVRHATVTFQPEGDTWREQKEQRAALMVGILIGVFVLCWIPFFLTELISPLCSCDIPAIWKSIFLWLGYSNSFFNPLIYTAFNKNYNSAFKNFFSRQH
Test [15] has as its target Beta-3 adrenergic receptor (Homo sapiens) (UniProt P13945). Nature of the test: Inhibition of beta-3 adrenergic receptor at 10 uM by NIMH PDSP.

Beta-3 adrenergic receptor (Homo sapiens), sequence (P13945 whole entry, looked up): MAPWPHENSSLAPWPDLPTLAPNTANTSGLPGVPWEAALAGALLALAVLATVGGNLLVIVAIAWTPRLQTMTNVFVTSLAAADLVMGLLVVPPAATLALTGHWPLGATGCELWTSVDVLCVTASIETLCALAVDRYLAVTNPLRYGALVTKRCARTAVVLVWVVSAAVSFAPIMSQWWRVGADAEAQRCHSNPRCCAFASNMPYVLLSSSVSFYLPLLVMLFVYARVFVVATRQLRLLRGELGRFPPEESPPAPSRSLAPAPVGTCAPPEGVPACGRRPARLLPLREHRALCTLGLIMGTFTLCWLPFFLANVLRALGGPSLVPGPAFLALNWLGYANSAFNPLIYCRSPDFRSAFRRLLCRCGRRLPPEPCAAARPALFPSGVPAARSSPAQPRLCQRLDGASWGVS
D(1A) dopamine receptor, sequence (P21728 whole entry): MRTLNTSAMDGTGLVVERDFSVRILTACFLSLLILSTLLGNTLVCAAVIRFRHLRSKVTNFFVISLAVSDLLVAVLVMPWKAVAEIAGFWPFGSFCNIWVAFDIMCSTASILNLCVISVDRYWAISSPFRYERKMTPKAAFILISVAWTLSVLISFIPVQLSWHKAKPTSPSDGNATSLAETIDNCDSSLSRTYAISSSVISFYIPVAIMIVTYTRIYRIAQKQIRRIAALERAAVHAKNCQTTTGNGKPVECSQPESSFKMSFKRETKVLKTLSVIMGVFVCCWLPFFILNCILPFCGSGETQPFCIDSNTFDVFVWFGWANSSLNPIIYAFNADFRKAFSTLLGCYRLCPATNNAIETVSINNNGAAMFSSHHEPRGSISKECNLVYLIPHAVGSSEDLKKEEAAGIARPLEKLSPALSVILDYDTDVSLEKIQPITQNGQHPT
5-hydroxytryptamine receptor 1D (Homo sapiens), sequence (P28221 whole entry): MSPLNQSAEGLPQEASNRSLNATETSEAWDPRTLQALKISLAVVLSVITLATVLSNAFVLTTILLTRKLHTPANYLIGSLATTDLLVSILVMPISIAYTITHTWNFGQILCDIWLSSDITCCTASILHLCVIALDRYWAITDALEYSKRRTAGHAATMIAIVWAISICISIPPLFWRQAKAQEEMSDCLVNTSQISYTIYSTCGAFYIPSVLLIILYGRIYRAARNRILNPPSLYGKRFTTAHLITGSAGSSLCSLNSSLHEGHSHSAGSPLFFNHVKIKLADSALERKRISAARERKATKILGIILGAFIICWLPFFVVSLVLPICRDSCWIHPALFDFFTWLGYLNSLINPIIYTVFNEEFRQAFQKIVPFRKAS

Usually inhibition stands for how much of the control response was suppressed. High values mean a response far below the control, low ones a response near the control. In general, Ki refers to the equilibrium dissociation constant of an inhibitor or competing ligand from its target. Read a high Ki as a looser hold on the target. On to `OC12CC3CC(CC(C3)N1Cc1cccc(F)c1)C2` (racemic), for which the inhibition (in [1]; in test [3]; in [4]; in test [5]; in [6]; against D(1A) dopamine receptor) was under 50% each time. The inhibition in [7], in test [8], in test [9], in test [10], in [12] and in [13] was under 50% in each case. In addition, the inhibition in test [14] and in [15] was under 50% throughout. The figures for the Ki (in test [2]; at Histamine H1 receptor; in test [11]) were 0.862 µM, under 10 µM and over 10 µM, respectively.

Consider `c1ccc(CN2C3CC4CC(C3)CC2C4)cc1`, for which the inhibition (in test [1]; in [3]; in [4]; in test [5]; in [6]; against D(1A) dopamine receptor) was under 50% in each case. Besides, the inhibition in test [7], in test [8], in test [9], in test [10], in [12] and in [13] was under 50% each time. Moreover, the inhibition in test [14] and in [15] was under 50% throughout. Further, the values for the Ki (in test [2]; on Histamine H1 receptor; in [11]) were 0.029 µM, under 10 µM and over 10 µM, respectively.

As for `Fc1cccc(CN2C3CC4CC(C3)CC2C4)c1`, the inhibition in test [1], in test [3], in [4], in [5], in test [6] and in test [8] was under 50% each time. For the same compound, the inhibition in test [9], in test [10], in [12], in test [13], in test [14] and in [15] was under 50% in each case. Also, the inhibitory constant (Ki) in [2] is 0.022 µM; on Histamine H1 receptor, under 10 µM; in test [11] it was over 10 µM.

As for `OC12CC3CC(CC(C3)N1Cc1ccccc1)C2` (racemic), the inhibition (in test [1]; in test [3]; in [4]; in test [5]; in test [6]; on D(1A) dopamine receptor) was under 50% each time. Moreover, the inhibition in test [7], in [8], in [9], in [10], in test [12] and in [13] was under 50% throughout. The inhibition in test [14] and in test [15] was under 50% throughout. Besides, the values for the Ki (in [2]; at Histamine H1 receptor) were 1.45 µM and under 10 µM, respectively.
